Entries after “also recorded” stand apart in the source; their conditions may differ.
Assays:
pancreatic cancer cell [1] = test: in vivo tumor growth, antagonists of Table 2; parameters: species or system mouse; key: ✓✓✓✓: dose response observed; growth suppressed by 8-fold or more relative to control; ✓✓✓: dose response observed; growth suppressed between 4-fold and 8-fold relative to control; ✓✓: dose response observed; growth suppressed by less than 4-fold relative to control; ✓: response observed only at highest drug dose tested; —: no detectable response; conditions: extent of growth suppression relative to control
pancreatic cancer cell [2] = test: in vitro sphere formation, antagonists of Table 2; format: cell-based, mouse; parameters: key: ✓✓✓✓: dose response observed; growth suppressed by 8-fold or more relative to control; ✓✓✓: dose response observed; growth suppressed between 4-fold and 8-fold relative to control; ✓✓: dose response observed; growth suppressed by less than 4-fold relative to control; ✓: response observed only at highest drug dose tested; —: no detectable response; conditions: extent of growth suppression relative to control
Experimental: Pancreatic tumorsphere formation assays were performed and modified from (Rovira et al., 2010). Briefly, low-passage (<6 passages) WT or REM2-KP^f/fC cell lines were infected with lentiviral particles containing shRNAs; positively infected (red) cells were sorted 72 hours after transduction. 100-300 infected cells were suspended in tumorsphere media: 100 μl DMEM F-12 (Gibco, Life Technologies) containing 1× B-27 supplement (Gibco, Life Technologies), 3% FBS, 100 μM B-mercaptoethanol (Gibco, Life Technologies), 1× non-essential amino acids (Gibco, Life Technologies), 1× N2 supplement (Gibco, Life Technologies), 20 ng/ml EGF (Gibco, Life Technologies), 20 ng/ml bFGF2 (Gibco, Life Technologies), and 10 ng/ml ESGRO mLIF (Thermo Fisher). Cells in media were plated in 96-well ultra-low adhesion culture plates (Costar) and incubated at 37° C. for 7 days. KP^f/fC in vitro tumorsphere formation studies were conducted at a minimum of n=3 independent wells per cell line across two independent shRNA of n=3 wells; however, the majority of these experiments were additionally completed in >1 independently-derived cell lines n=3, at n=3 wells per shRNA.

[3] = test system: primary patient-derived PDX1535 organoids; test: PDX1535 organoid assay; format: cell-based, human
Experimental: PDX1535 organoids were derived from a patient of pancreatic cancer. Primary patient organoids were established by digesting patient-derived xenografts for 1 hour at 37° C. in RPMI containing 2.5% FBS, 5 mg/ml Collagenase II, and 1.25 mg/ml Dispase II, followed by passage through a […] mesh filter. Cells were plated at a density of 1.5×10^5 cells per 50 μl Matrigel. After domes were solidified, growth medium was added as follows: RPMI containing 50% Wnt3a conditioned media, 10% RSpondin1-conditioned media, 2.5% FBS, 50 ng/ml EGF, 5 mg/ml Insulin, 12.5 ng/ml hydrocortisone, and 14 μM Rho Kinase Inhibitor. After establishment, organoids were passaged and maintained. Briefly, organoids were isolated using Cell Recovery Solution (Corning 354253), then dissociated into single cell suspension with TrypLE Express (ThermoFisher 12604) supplemented with 25 μg/ml DNase I (Roche) and 14 μM Rho Kinase Inhibitor (Y-27632, Sigma). Cells were split 1:2 into 20 μl domes plated on pre-warmed 48-well plates. Domes were incubated at 37° C. for 5 min, then covered with human complete organoid feeding media without Wnt3a-conditioned media. […] The organoids were imaged and measured at the end of treatment. […] Moreover, the anti-cancer effect of JTE-151 was determined in an organoid assay using pancreatic cancer cells derived from mice bearing primary patient-derived xenografts.

[4] = test system: primary patient-derived PDX1356 organoids; test: PDX1356 organoid assay; format: cell-based, human; conditions: 0.05 nM gemcitabine alone
Experimental: PDX1535 organoids were derived from a patient of pancreatic cancer. Primary patient organoids were established by digesting patient-derived xenografts for 1 hour at 37° C. in RPMI containing 2.5% FBS, 5 mg/ml Collagenase II, and 1.25 mg/ml Dispase II, followed by passage through a […] mesh filter. Cells were plated at a density of 1.5×10^5 cells per 50 μl Matrigel. After domes were solidified, growth medium was added as follows: RPMI containing 50% Wnt3a conditioned media, 10% RSpondin1-conditioned media, 2.5% FBS, 50 ng/ml EGF, 5 mg/ml Insulin, 12.5 ng/ml hydrocortisone, and 14 μM Rho Kinase Inhibitor. After establishment, organoids were passaged and maintained. Briefly, organoids were isolated using Cell Recovery Solution (Corning 354253), then dissociated into single cell suspension with TrypLE Express (ThermoFisher 12604) supplemented with 25 μg/ml DNase I (Roche) and 14 μM Rho Kinase Inhibitor (Y-27632, Sigma). Cells were split 1:2 into 20 μl domes plated on pre-warmed 48-well plates. Domes were incubated at 37° C. for 5 min, then covered with human complete organoid feeding media without Wnt3a-conditioned media.
As shown in FIGS. 65-66, the anti-cancer effect of JTE-151 was also tested using the organoid assay on primary patient-derived PDX1356 pancreatic cancer cells. […] The volume of organoids was expressed as relative to control.

[5] = test system: KP^f/fC derived flank tumors; test: KP^f/fC flank tumors in immunocompetent mice; format: in vivo, mouse; conditions: gemcitabine alone

Structure (SMILES)	in vivo tumor growth (pancreatic cancer cell [1])	in vitro sphere formation (pancreatic cancer cell [2])	other results
Cl[TeH]1(Cl)(Cl)OCCO1 [AS101]	—	✓✓✓ (dose response observed; growth suppressed between 4-fold and 8-fold relative to control)	
O=C1/C(=C/c2ccccc2)C(NC2CCCCC2)c2ccccc21 (centres unmarked) [BCl]	—	✓✓ (dose response observed; growth suppressed by less than 4-fold relative to control)	
Cc1c(F)cccc1NC(=O)Nc1ccc(Cl)c(S(=O)(=O)[C@H]2CCCNC2)c1O [Danirixin]		—	
CCc1cc(Cl)c(OC)c(C(=O)NC[C@@H]2CCCN2CC)c1O [Eticlopride]	—	—	
NCCCCCCCN=C(N)N [GC7]		✓	
Oc1c(Br)cc(Br)cc1-c1[nH]c(Br)c(Br)c1Br [Pentabromopseudilin]		✓✓ (dose response observed; growth suppressed by less than 4-fold relative to control)	
CC(C)(C)NC(=O)c1cncn1C1CCN(c2ccc(-c3nnc(C(F)(F)F)o3)cn2)CC1 [Wnk463]		✓✓ (dose response observed; growth suppressed by less than 4-fold relative to control)	
Nc1ccn([C@@H]2O[C@H](CO)[C@@H](O)C2(F)F)c(=O)n1 [gemcitabine]			organoid growth ([3]; 0.025 nM gemcitabine alone): decreased PDZ1535 organoid growth, although not statistically significant; organoid volume / growth ([3]; 0.05 nM gemcitabine alone): visibly reduced; also recorded: significant inhibition; organoid volume [4]: significant reduction; also recorded: visibly decreased; also recorded: visibly reduced; cancer stem cell burden [5]: no impact

Reference: patent publication US20220202811A1, “TREATMENT FOR RETINOIC ACID RECEPTOR-RELATED ORPHAN RECEPTOR Ɣ (RORƔ)-DEPENDENT CANCERS” (The Regents of the University of California, priority 2019, published 2022)
